These results are taken from BindingDB's records for patent US20250313563 (The Broad Institute, 2025).

SMILES strings stand for the structures. “And” between values parts separate entries of the source, which are not always exact repeats. Identical values can stand only once.

Assay [1] addresses Glycogen synthase kinase-3 beta (Homo sapiens, UniProt P49841). As to the kind of experiment: TR-FRET Assay. A digest of the protocol: (§1)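 Kinase activity, measured after a 30-minute compound preincubation, was stopped with EDTA and quantified by TR-FRET using a Tb-labelled pSer641 antibody paired with streptavidin-d2.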
For assay [2], the target named is Glycogen synthase kinase-3 alpha (Homo sapiens, UniProt P49840). As to the kind of experiment: TR-FRET Assay. In a few lines: as §1
Glycogen synthase kinase-3 alpha, sequence (P49840 whole entry): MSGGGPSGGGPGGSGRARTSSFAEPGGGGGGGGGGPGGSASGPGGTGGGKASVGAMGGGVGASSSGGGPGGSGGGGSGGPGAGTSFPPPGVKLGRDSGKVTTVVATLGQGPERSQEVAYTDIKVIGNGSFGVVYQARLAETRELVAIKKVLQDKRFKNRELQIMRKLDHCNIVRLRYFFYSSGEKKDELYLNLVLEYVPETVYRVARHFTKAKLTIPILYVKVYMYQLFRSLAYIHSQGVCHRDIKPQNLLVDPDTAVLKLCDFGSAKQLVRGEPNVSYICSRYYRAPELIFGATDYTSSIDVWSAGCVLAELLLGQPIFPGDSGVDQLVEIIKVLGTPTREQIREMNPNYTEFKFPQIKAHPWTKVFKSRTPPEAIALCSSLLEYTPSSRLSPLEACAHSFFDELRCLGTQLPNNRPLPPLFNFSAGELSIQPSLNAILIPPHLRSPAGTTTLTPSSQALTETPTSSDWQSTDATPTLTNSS

Glycogen synthase kinase-3 beta, sequence (P49841 whole entry): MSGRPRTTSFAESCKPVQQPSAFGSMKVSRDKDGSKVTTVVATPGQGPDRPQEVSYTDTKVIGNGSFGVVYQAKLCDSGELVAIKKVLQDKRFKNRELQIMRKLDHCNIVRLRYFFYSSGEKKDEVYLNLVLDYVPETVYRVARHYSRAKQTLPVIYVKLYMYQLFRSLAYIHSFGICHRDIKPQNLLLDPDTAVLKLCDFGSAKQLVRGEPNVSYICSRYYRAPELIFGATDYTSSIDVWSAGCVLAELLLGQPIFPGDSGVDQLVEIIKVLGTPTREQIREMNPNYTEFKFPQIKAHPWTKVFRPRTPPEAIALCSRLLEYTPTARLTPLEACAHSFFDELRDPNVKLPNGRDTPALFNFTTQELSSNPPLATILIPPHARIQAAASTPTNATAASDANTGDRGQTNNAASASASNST

Consider `CC[C@@]1(c2cccc(C3=C4CC=C(F)C=C4N=CC3)c2)C2=CN=NC2NC2=C1C(=O)NC(C)(C)C2` (stereo partly drawn) [US20250313563, Compound 948528], for which the IC50 was 0.1 to 1 µM in assay [1] and < 0.1 µM in assay [2].

On to `CC[C@@]1(c2cccc(C3CC3)c2)C2=CN=NC2NC2=C1C(=O)CC(C)(C)C2` (stereo partly drawn) [US20250313563, Compound 811557], for which the 50% inhibitory concentration (IC50) in assay [1] is < 0.1 µM and 1 to 5 µM; in assay [2] it was < 0.1 µM and 0.1 to 1 µM.

For `COC(=O)C1CCC2(CC1)C1=C(N=NC1)NC1=C2C(=O)CC(C)(C)C1` (stereo not drawn) [US20250313563, Compound 918270], the half-maximal inhibitory concentration (IC50) in assay [1] and in assay [2] was 0.1 to 1 µM each time.

`CC[C@]1(c2cccc(-c3ccnc4c3cnn4C)c2)C2=CN=NC2NC2=C1C(=O)NC(C)(C)C2` (stereo partly drawn) [US20250313563, Compound 948817]: the concentration for half-maximal inhibition (IC50) in assay [1] and in assay [2] was > 5 µM in each case.

Turning to `CC[C@@]1(c2cccc(-c3cnn(C)c3F)c2)C2=CN=NC2NC2=C1C(=O)NC(C)(C)C2` (stereo partly drawn) [US20250313563, Compound 950562], the IC50 in assay [1] was 0.1 to 1 µM; in assay [2] it was < 0.1 µM.

As for `CC1(C)CC(=O)C2=C(C1)NC1=C(CN=N1)C21CN(CC2CCCC2)C1` [US20250313563, Compound 943914], the IC50 in assay [1] and in assay [2] was > 5 µM throughout.

In the case of `Cc1cc(S(=O)(=O)N2CCC3(CC2)C2=C(N=NC2)NC2=C3C(=O)CC(C)(C)C2)ccc1OC(C)C` [US20250313563, Compound 945678], the concentration for half-maximal inhibition (IC50) in assay [1] is 0.1 to 1 µM; in assay [2], < 0.1 µM.

Regarding `CC[C@]1(c2cccc(-c3ccnc(OC(F)(F)F)c3)c2)C2=CN=NC2NC2=C1C(=O)CC(C)(C)C2` (stereo partly drawn) [US20250313563, Compound 943988], the IC50 was 1 to 5 µM in assay [1] and 0.1 to 1 µM in assay [2].

On to `C[S@+]([O-])c1cccc([C@]2(C)C3=C(CC(C)(C)CC3=O)NC3=C2C(CC(C)(C)C)N=N3)c1` (stereo partly drawn) [US20250313563, Compound 126190], for which the IC50 in assay [1] was in the range of 0.1 to 1 µM; in assay [2], 1 to 5 µM.

Consider `CCOc1ccc(S(=O)(=O)N2CCC3(CC2)C2=C(N=NC2)NC2=C3C(=O)CC(C)(C)C2)cc1` [US20250313563, Compound 945670], for which the IC50 is < 0.1 µM and 1 to 5 µM in assay [1]; < 0.1 µM and 0.1 to 1 µM in assay [2].

With `CCC1(c2cccc(S(=O)(=O)C3CC3)c2)C2=CN=NC2NC2=C1C(=O)N(C)C(C)(C)C2` (stereo not drawn) [US20250313563, Compound 948303], the IC50 in assay [1] and in assay [2] was < 0.1 µM in each case.

`CC[C@]1(c2cccc(-c3c(Cl)cncc3Cl)c2)C2=CN=NC2NC2=C1C(=O)NC(C)(C)C2` (stereo partly drawn) [US20250313563, Compound 948824]: the IC50 is > 5 µM in assay [1] and 1 to 5 µM in assay [2].

For the compound `CC1(C)CC(=O)C2=C(C1)NC1=C(CN=N1)C21CCN(S(=O)(=O)c2ccccc2OC(F)F)CC1` [US20250313563, Compound 945668], the IC50 in assay [1] was < 0.1 µM and 0.1 to 1 µM; in assay [2], < 0.1 µM.

`CCC1(c2cccc(-c3cncn3C)c2)C2=CN=NC2NC2=C1C(=O)NC(C)(C)C2` (stereo not drawn) [US20250313563, Compound 945597]: the IC50 in assay [1] and in assay [2] was < 0.1 µM each time.

For the compound `CN1C[C@]2(C3=C(CC(C)(C)CC3=O)NC3N=NC(C4CC(F)(F)C4)=C32)c2ccccc21` (stereo partly drawn) [US20250313563, Compound 119047], the IC50 in assay [1] was in the range of 0.1 to 1 µM; in assay [2] it was 1 to 5 µM.

Consider `CC[C@@]1(c2cccc(-c3cnn4c3CCCC4)c2)C2=C(CC(C)(C)CC2=O)NC2N=NC(C)=C21` (stereo partly drawn) [US20250313563, Compound 913033], for which the values for the IC50 in assay [1] and in assay [2] were 1 to 5 µM and 0.1 to 1 µM, respectively.

For `CCC1(c2cccc(N3CCN(C)CC3)c2)C2=CN=NC2NC2=C1C(=O)CC(C)(C)C2` (stereo not drawn) [US20250313563, Compound 810379], the half-inhibitory concentration (IC50) in assay [1] is > 5 µM; in assay [2] it was > 1.67 µM.

For the compound `CC[C@@]1(c2ccccc2)C2=CN=NC2NC2=C1C(=O)[C@@H](C)C[C@H]2C` (stereo partly drawn) [US20250313563, Compound 909218], the IC50 in assay [1] and in assay [2] was > 5 µM each time.

`CC[C@]1(c2ccccc2)C2=CN=NC2NC2=C1C(=O)[C@@H](F)C(C)(C)C2` (stereo partly drawn) [US20250313563, Compound 826769]: the concentration for half-maximal inhibition (IC50) in assay [1] and in assay [2] was > 5 µM in each case.

Take `CC[C@@]1(c2cccc(C(F)(F)F)c2)C2=CN=NC2NC2=C1C(=O)N(C(C)C)CC2` (stereo partly drawn) [US20250313563, Compound 857362]: the half-inhibitory concentration (IC50) in assay [1] and in assay [2] was > 5 µM in each case.

`CCC1(c2cccc(N(C)c3cccc(OC)n3)c2)C2=CN=NC2NC2=C1C(=O)CC(C)(C)C2` (stereo not drawn) [US20250313563, Compound 913121]: the half-maximal inhibitory concentration (IC50) in assay [1] is 0.1 to 1 µM; in assay [2], < 0.1 µM.

On to `Cc1ncc(S(=O)(=O)N2CCC3(CC2)C2=C(N=NC2)NC2=C3C(=O)CC(C)(C)C2)o1` [US20250313563, Compound 947611], for which the IC50 was < 0.1 µM and 0.1 to 1 µM in assay [1]; < 0.1 µM and 0.1 to 1 µM in assay [2].

In the case of `CC[C@@]1(c2cccc(-c3ccnc(C)c3)c2)C2=CN=NC2NC2=C1C(=O)N[C@@H](C)C2` (stereo partly drawn) [US20250313563, Compound 926302], the half-inhibitory concentration (IC50) in assay [1] was > 5 µM; in assay [2], 1 to 5 µM.

Turning to `CC[C@]1(c2ccccc2)C2=CN=NC2NC2=C1C(=O)C[C@](C)(COC)C2` (stereo partly drawn) [US20250313563, Compound 816875], the IC50 in assay [1] lay in the range of 1 to 5 µM; in assay [2], 0.1 to 1 µM.

Regarding `CCC1(c2cccc(N(C)c3ccncn3)c2)C2=CN=NC2NC2=C1C(=O)CC(C)(C)C2` (stereo not drawn) [US20250313563, Compound 902970], the IC50 in assay [1] is 0.1 to 1 µM; in assay [2], < 0.1 µM.

For the compound `Cc1c(S(=O)(=O)N2CCC3(CC2)C2=C(N=NC2)NC2=C3C(=O)CC(C)(C)C2)cnn1C` [US20250313563, Compound 947460], the IC50 in assay [1] and in assay [2] was < 0.1 µM in each case.

Consider `CC[C@]1(c2cccc(-c3ccnc(C)c3)c2)C2=C(CC(C)(C)NC2=O)NC2N=NC(F)=C21` (stereo partly drawn) [US20250313563, Compound 949001], for which the IC50 in assay [1] and in assay [2] was 0.1 to 1 µM throughout.

As for `CCC1(c2cccc(N(C)C(=O)c3cnn(C)c3)c2)C2=CN=NC2NC2=C1C(=O)CC(C)(C)C2` (stereo not drawn) [US20250313563, Compound 912068], the concentration for half-maximal inhibition (IC50) in assay [1] was 0.1 to 1 µM; in assay [2] it was < 0.1 µM.

Regarding `CC[C@]1(c2cccc(-c3cnn(C)c3)c2)C2=CN=NC2NC2=C1C(=O)C[C@@H](C)C2` (stereo partly drawn) [US20250313563, Compound 823721], the IC50 in assay [1] and in assay [2] was 0.1 to 1 µM each time.

Take `CCC1(c2cccc(OC)c2)C2=C(CC(C)(C)NC2=O)NC2N=NC(C)=C21` (stereo not drawn) [US20250313563, Compound 948763]: the IC50 in assay [1] is 0.1 to 1 µM; in assay [2], < 0.1 µM.

In the case of `CC[C@@]1(c2cccc(-c3ccnc4ccncc34)c2)C2=CN=NC2NC2=C1C(=O)NC(C)(C)C2` (stereo partly drawn) [US20250313563, Compound 952910], the IC50 was 0.1 to 1 µM and > 5 µM in assay [1]; < 0.1 µM and 0.1 to 1 µM in assay [2].

Consider `CC(C)(C)CC1=C2C(N=N1)NC1=C(C(=O)CC(C)(C)C1)[C@]21CCc2cc(F)ccc21` (stereo partly drawn) [US20250313563, Compound 782424], for which the IC50 in assay [1] is < 0.1 µM; in assay [2], 0.1 to 1 µM.

`CC[C@@]1(c2cccc(N3CCCCC3)c2)C2=C(CC(C)(C)CC2=O)NC2N=NC(C(F)(F)F)=C21` (stereo partly drawn) [US20250313563, Compound 816799]: the IC50 lay within 1 to 5 µM in assay [1] and 0.1 to 1 µM in assay [2].

With `CC[C@@]1(c2cccc(N3CCCC3)c2)C2=CN=NC2NC2=C1C(=O)CC(C)(C)C2` (stereo partly drawn) [US20250313563, Compound 810510], the IC50 is 0.1 to 1 µM in assay [1] and < 0.1 µM in assay [2].
